pIC50: −log10 of the molar value.

For data set [1], the target named is T1, TNIK kinase [amino acid sequence (1-367), Invitrogen] (Homo sapiens, UniProt Q9UKE5).
T1 construct: purchased Invitrogen
As to the kind of experiment: TNIK kinase inhibition assay (Z-lyte FRET-peptide). The data set is classed as biochemical. Particulars: 0.625 nM TNIK kinase, 2 μM Ser/Thr 7 peptide, 64 μM ATP, one hour at room temperature.

Data set [2] is described as follows: Metabolic stability in human liver microsomes. The data set is classed as in vitro ADME. Particulars: LM Clint (intrinsic clearance); 1 μM test compound, 0.5 mg protein/mL microsome, 37° C., up to 60 min. As to the method: 2.1. Test Compound and Control Working Solution Preparation: Working solution: 5 µL of compound and control stock solution (10 mM in dimethyl sulfoxide (DMSO)) were diluted with 495 μL of acetonitrile (ACN) (intermediate solution concentration: 100 μM, 99% ACN).
2.2.1. […] 2.2.2. Preparation Procedure: The appropriate amount of NADPH powder were weighed and diluted into a 10 mM MgCl2 solution (working solution concentration: 10 unit/mL; final concentration in reaction system: 1 unit/mL).
2.3.2. Preparation Procedure: The appropriate concentrations of microsome working solutions were prepared in 100 mM potassium phosphate buffer. 2.4. Stop Solution Preparation: Cold (4° C.) acetonitrile (ACN) containing 200 ng/mL tolbutamide and 200 ng/mL labetalol as internal standards (IS) were used as the stop solution.
2.5.1. Pre-warm empty ‘Incubation’ plates T60 and NCF60 for 10 min minutes. 2.5.2. Liver microsomes were diluted to 0.56 mg/mL in 100 mM phosphate buffer. 2.5.3. 445 uL microsome working solutions (0.56 mg/mL) were transferred into pre-warmed ‘Incubation’ plates T60 and NCF60. Then ‘Incubation’ plates T60 and NCF60 were pre-incubated for 10 min at 37° C. with constant shaking. 54 μL liver microsomes were transferred to blank plate, then 6 μL NAPDH cofactor were added to the blank plate, and then 180 μL quenching solution can be added to blank plate. 2.5.4 5 μL compound working solution (100 μM) were added into ‘incubation’ plates (T60 and NCF60) containing microsomes and mix 3 times thoroughly. 2.5.5. For the NCF60 plate, 50 uL of buffer were added and were mixed 3 times thoroughly. Start timing; plate was incubated at 37° C. for 60 min while shaking. 2.5.6. In ‘Quenching’ plate TO, 180 μL quenching solution were added and 6 μL NAPDH cofactor were added. Ensured the plate was chilled to prevent evaporation. 2.5.7. For the T60 plate, were mixed 3 times thoroughly, and immediately removed 54 μL mixture for the 0-min time point to ‘Quenching’ plate. Then 44 μL NAPDH cofactor were added to incubation plate (T60). Start timing; plate were incubated at 37° C. for 60 min while shaking.
2.5.8. At 5, 10, 20, 30, and 60 min, 180 μL quenching solution were added to ‘Quenching’ plates, mix once, and were serially transferred 60 μL sample from T60 plate per time point to ‘Quenching’ plates.
2.5.9. For NCF60: were mixed once, and 60 μL sample were transferred from the NCF60 incubation to ‘Quenching’ plate containing quenching solution at the 60-min time point.
2.5.10. All sampling plates were shaken for 10 min, then centrifuged at 4000 rpm for 20 minutes at 4° C. 2.5.11. 80 μL supernatant were transferred into 240 μL HPLC water, and were mixed by plate shaker for 10 min. 2.5.12. Each bioanalysis plate were sealed and shaken for 10 minutes prior to LC-MS/MS analysis.
3.1. The equation of first order kinetics were used to calculate T1/2 and Intrinsic clearance (CLint mic) in (μL/min/mg).
Equation of first order kinetic.
Background: Microsomes from liver hold many membrane-bound enzymes, among them those of drug oxidation.

T1 sequence (Q9UKE5 1-367): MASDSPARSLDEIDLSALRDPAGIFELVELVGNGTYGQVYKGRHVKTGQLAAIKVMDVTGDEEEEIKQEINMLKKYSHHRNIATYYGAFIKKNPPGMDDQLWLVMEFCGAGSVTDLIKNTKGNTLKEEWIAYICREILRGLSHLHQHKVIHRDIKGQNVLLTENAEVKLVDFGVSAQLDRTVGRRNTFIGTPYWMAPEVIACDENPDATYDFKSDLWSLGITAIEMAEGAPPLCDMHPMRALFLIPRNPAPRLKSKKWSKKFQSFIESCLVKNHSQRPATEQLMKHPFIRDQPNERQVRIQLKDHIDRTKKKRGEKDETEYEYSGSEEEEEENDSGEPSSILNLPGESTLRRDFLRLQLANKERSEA

On to `[2H]C([2H])([2H])N1CCN(c2ccc(NC(=O)c3c[nH]c(-c4c(-c5ccc(F)cc5)ncn4C(C)C)n3)c(F)c2)CC1` [Compound 126, 2-[5-(4-fluorophenyl)-3-isopropyl-imidazol-4-yl]-N-[2-fluoro-4-[4-(trideuteriomethyl)piperazin-1-yl]phenyl]-1H-imidazole-4-carboxamide], for which the pIC50 in data set [1] is 7.92 to 9.00. Moreover, in data set [2], the “Human Liver Microsome (μM/min/mg)” value was “++ (10-100 μM/min/mg as ++)”.

`CC(C)n1cnc(-c2ccc(F)cc2)c1-c1nc(C(=O)Nc2ccc(C3COC3)cn2)cs1` [Compound 57, 2-(4-(4-fluorophenyl)-1-isopropyl-1H-imidazol-5-yl)-N-(5-(oxetan-3-yl)pyridin-2-yl)thiazole-4-carboxamide] showed a pIC50 in data set [1] of 7.92 to 9.00. Moreover, in data set [2], the “Human Liver Microsome (μM/min/mg)” value is “+ (>100 μM/min/mg as +)”.

Consider `O=C(Nc1ccc(N2CCC2)cn1)c1csc(-c2c(-c3ccc(F)cc3)ncn2C2CC(F)(F)C2)n1` [Compound 68, N-(5-(azetidin-1-yl)pyridin-2-yl)-2-(1-(3,3-difluorocyclobutyl)-4-(4-fluorophenyl)-1H-imidazol-5-yl)thiazole-4-carboxamide], for which the pIC50 in data set [1] is 7.92 to 9.00. Moreover, the “Human Liver Microsome (μM/min/mg)” value in data set [2] is given as “++ (10-100 μM/min/mg as ++)”.

Compound `CC(C)n1cnc(-c2ccc(F)cc2)c1-c1nc(C(=O)Nc2ccc3c(n2)CN(C)CC3)cs1` [Compound 43, 2-(4-(4-fluorophenyl)-1-isopropyl-1H-imidazol-5-yl)-N-(7-methyl-5,6,7,8-tetrahydro-1,7-naphthyridin-2-yl)thiazole-4-carboxamide] had a pIC50 in data set [1] of 7.92 to 9.00. For the same compound, the “Human Liver Microsome (μM/min/mg)” value in data set [2] is listed as “+ (>100 μM/min/mg as +)”.

Compound `CC(C)n1cnc(-c2ccc(F)cc2)c1-c1nc(C(=O)Nc2ccc(N3CCOCC3)cn2)cs1` [Compound 99, 2-(4-(4-fluorophenyl)-1-isopropyl-1H-imidazol-5-yl)-N-(5-morpholinopyridin-2-yl)thiazole-4-carboxamide] gave a pIC50 in data set [1] of 7.92 to 9.00. In addition, the “Human Liver Microsome (μM/min/mg)” value in data set [2] is reported as “++ (10-100 μM/min/mg as ++)”.

As to `CC(C)n1cnc(-c2ccc(F)cc2)c1-c1nc(C(=O)Nc2ccc(N3CCN(C)CC3)cn2)cs1` [Compound 7, 2-(4-(4-fluorophenyl)-1-isopropyl-1H-imidazol-5-yl)-N-(5-(4-methylpiperazin-1-yl)pyridin-2-yl)thiazole-4-carboxamide], in data set [1], the pIC50 is 7.92 to 9.00. The “Human Liver Microsome (μM/min/mg)” value in data set [2] was “+ (>100 μM/min/mg as +)”.

Regarding `CC(C)n1cnc(-c2ccc(F)cc2)c1-c1nc(C(=O)Nc2ccc(C3CCN(C)CC3)cn2)cs1` [Compound 9, 2-(4-(4-fluorophenyl)-1-isopropyl-1H-imidazol-5-yl)-N-(5-(1-methylpiperidin-4-yl)pyridin-2-yl)thiazole-4-carboxamide], the pIC50 in data set [1] is 7.92 to 9.00. The “Human Liver Microsome (μM/min/mg)” value in data set [2] is “++ (10-100 μM/min/mg as ++)”.

`[2H]C([2H])([2H])N1CCN(c2ccc(NC(=O)c3c[nH]c(-c4c(-c5ccc(F)cc5)ncn4C([2H])(C)C)n3)c(F)c2)CC1` [Compound 127, 2-[3-(1-deuterio-1-methyl-ethyl)-5-(4-fluorophenyl)imidazol-4-yl]-N-[2-fluoro-4-[4-(trideuteriomethyl)piperazin-1-yl]phenyl]-1H-imidazole-4-carboxamide] showed a pIC50 in data set [1] of 7.92 to 9.00. The “Human Liver Microsome (μM/min/mg)” value in data set [2] was “++ (10-100 μM/min/mg as ++)”.

The compound `CC(C)n1cnc(-c2ccc(F)cc2)c1-c1nc(C(=O)Nc2ccc(C3COC3)cc2F)cs1` [Compound 59] gave a pIC50 in data set [1] of 7.92 to 9.00. For the same compound, the “Human Liver Microsome (μM/min/mg)” value in data set [2] is “+ (>100 μM/min/mg as +)”.

`CC(C)c1noc(-c2ccc(F)cc2)c1-c1nc(C(=O)Nc2ccc(N3CC4CC(C3)N4C)cc2F)cs1` [Compound 97, N-(2-fluoro-4-(6-methyl-3,6-diazabicyclo[3.1.1]heptan-3-yl)phenyl)-2-(5-(4-fluorophenyl)-3-isopropylisoxazol-4-yl)thiazole-4-carboxamide] showed a pIC50 in data set [1] of 7.92 to 9.00. Moreover, the “Human Liver Microsome (μM/min/mg)” value in data set [2] is “++ (10-100 μM/min/mg as ++)”.

As a reminder, the pIC50 is the negative decadic logarithm of the IC50, by convention in mol/L.

These data come from patent US20240336611A1 (Insilico Medicine IP Limited, priority 2021, published 2024).
